In brackets after ≈: the same amount, converted by molar mass. Like-named read-outs stand apart in the source and are kept apart here.
Columns and labels:
Assay type in all cases: cell-based, Propionibacterium acnes
HL043PA1 strain (RT5) = assay: MIC by broth microdilution method, HL043PA1 strain; details: for MIC: Cutibacterium acnes, read-out: MIC against acne bacterium strain HL043PA1 strain (RT5)
Procedure: An MIC is measured herein according to the broth microdilution method which is the standard method of Japanese Society of Chemotherapy.
(§1) The antibacterial activity of a test substance was determined based on the minimum inhibitory concentration (MIC). An MIC was measured according to the broth microdilution method which is the standard method of Japanese Society of Chemotherapy.
One-loopful of each acne bacterium strain listed in Table 1 was scraped off and inoculated into 5 mL of a GAM broth slant agar medium (pH 7.0, Nissui Pharmaceutical Co., Ltd.).
The inoculated acne bacterium strain was precultured at 37° C. in a nitrogen atmosphere (anaerobic condition) for 48 hours. […]
Each fatty acid (Tokyo Chemical Industry Co., Ltd.) listed in Table 2 was dissolved in dimethylsulfoxide (DMSO) as a solvent such that the concentration became 10,000 μg/mL, and used as a test substance.
Each of strain suspensions (5.0×10^4 cfu/mL) was aliquoted in a 96-well round bottom microplate, each of the test substance (fatty acid concentration 10,000 μg/mL) was added at a 1/10 volume to the aliquot and mixed to prepare measurement samples (fatty acid concentration: 1,000 μg/mL). Measurement samples in 2-fold dilution series were prepared using the strain suspension (fatty acid concentration from 0.48 to 1,000 μg/mL).
(§2) The measurement samples were incubated under an anaerobic condition at 37° C. for 2 days. The presence or absence of a precipitation of test microbial cells after the incubation was examined and the minimum concentration at which the precipitation of microbial cells […] was regarded as the MIC (μg/mL) of the test substance against the acne bacterium strain.

[1] = system: dominant strain in acne patients (RT4 strain and/or RT5 strain); assay: MIC against dominant strain in acne patients; details: Cutibacterium acnes, in the pH range tested in the Examples
Procedure: as §1
(§3) Each of strain suspensions (5.0×10^4 cfu/mL) was aliquoted in a 96-well round bottom microplate, each of the test substance (fatty acid concentration 10,000 μg/mL) was added at a 1/10 volume to the aliquot and mixed to prepare measurement samples (fatty acid concentration: 1,000 μg/mL). Measurement samples in 2-fold dilution series were prepared using the strain suspension (fatty acid concentration from 0.48 to 1,000 μg/mL). Using a sample containing only the solvent (DMSO) as a control, it was confirmed that the influence of the solvent on the growth of each strain could be neglected.
as §2

HL110PA4 strain (RT6) = assay: MIC by broth microdilution method, HL110PA4 strain; details: Cutibacterium acnes; Example 6, method as Example 1; read-out: MIC against acne bacterium strain HL110 PA4 strain (RT6)
Procedure: as §1, §3, §2
The MIC of each of the following test substances was measured substantially in the same manner as in Example 1 (Table 12) except that a suspension of test bacterium strains was prepared using the dominant strain in acne patients (HL005PA1 strain (HM-492^†, RT4 strain), […] (HM-524^†, RT4 strain), HL045PA1 strain (HM-516^†, RT4 strain), or HL043PA2 strain (HM-514^†, RT5 strain)), or the dominant strain in healthy subjects (HL110PA4 strain (HM-555^†, RT6 strain) instead of the dominant strains in acne patients (HL053PA1 strain (RT4 strain) and HL043PA1 strain (RT5 strain)) and the dominant strain in healthy subjects (HL110PA3 strain (RT6 strain) used in Examples 1 to 3.

[2] = system: HL053PA1 strain (RT4 strain); assay: Time course of viable cell count, HL053PA1 strain; details: 15 μg/mL, pH 6.0, anaerobic 37° C., 0 to 44 hours (FIG. 1a)
Procedure: (§4) To each strain suspension (pH 6.0, 5.0×10^5 cfu/mL) of the acne bacterium strain (HL053PA1 strain (RT4 strain), HL043PA1 strain (RT5 strain), and HL110PA3 strain (RT6 strain)) prepared in the same manner as in Example 1, pentadecanoic acid (C15:0) was added to mix together (final concentration of a fatty acid of 15 μg/mL, and final concentration of solvent DMSO of 0.5%), and each the mixture was statically cultured at 37° C. in a nitrogen atmosphere (anaerobic condition). Using a sample to which only DMSO was added at 0.5% (final concentration) as a control, it was confirmed that the influence of the solvent on the growth of each strain could be neglected.
(§5) The viable cell count in the culture solution was measured at 0, 2, 8, 18, 30 and 44 hours after the start of culturing. A viable cell count (cfu/mL) was calculated from the number of emerged colonies after culturing part of the culture solution on a GAM broth agar plate under anaerobic conditions for 3 days (FIG. 1).

[3] = system: HL043PA1 strain (RT5 strain); assay: Time course of viable cell count, HL043PA1 strain; details: 15 μg/mL, pH 6.0, anaerobic 37° C., 0 to 44 hours (FIG. 1b)
Procedure: as §4, §5

[4] = system: HL053PA1 strain (RT4 strain) and HL110PA3 strain (RT6 strain); assay: Coculture test, coculturing strain suspension-1; set-up: dose or concentration left out as unconfirmed; details: pH 6.0, 2 days (FIG. 2a)
Text: (§6) Acne bacteria strains (HL053PA1 strain (RT4 strain), HL043PA1 strain (RT5 strain), and HL110PA3 strain (RT6 strain)) were respectively precultured in the same manner as in Example 1.
(§7) The HL053PA1 strain (RT4 strain) and the HL110PA3 strain (RT6 strain) were suspended in a modified GAM broth liquid medium (pH 6.0) respectively at a concentration of 5.0×10^4 cfu/mL. Similarly, the HL043PA1 strain (RT5 strain) and the HL110PA3 strain (RT6 strain) were suspended respectively at a concentration of 5.0×10^4 cfu/mL. The suspensions were respectively designated as coculturing strain suspensions-1, and -2.
(§8) […] Using a sample to which only 0.5% of DMSO was added as a control, it was confirmed that the influence of the solvent on the growth of each bacterium strain could be neglected.
(§9) The test sample was statically cultured under anaerobic conditions at 37° C. for 2 days. After the culture, part of the culture solution was cultured under anaerobic conditions on a GAM broth agar plate (pH 7) for 3 days. The bacterium strains were identified based on the morphology (particularly size) of the emerged colonies, and the viable cell count (cfu/mL) of each bacterium strain was measured. From the measurement results, the proportion of each bacterium strain in the entire microbial cells was calculated (FIG. 2).

[5] = system: HL043PA1 strain (RT5 strain) and HL110PA3 strain (RT6 strain); assay: Coculture test, coculturing strain suspension-2; set-up: dose or concentration left out as unconfirmed; details: pH 6.0, 2 days (FIG. 2b)
Text: as §6, §7, §8, §9

[6] = 48 h, pH 6.0 modified GAM broth, anaerobic, 37° C., 2 days (Example 1)
[7] = 72 h, pH 5.0, estimated from the growth on day 3
[8] = pH 5.0, estimated from the growth on day 3

Structure (SMILES) | MIC (HL043PA1 strain (RT5); [6]) [µg/mL] | MIC (HL043PA1 strain (RT5); [7]) [µg/mL] | MIC (HL043PA1 strain (RT5); pH 5.5) [µg/mL] | MIC (HL043PA1 strain (RT5); pH 6.5) [µg/mL] | MIC (HL043PA1 strain (RT5); pH 7.0) [µg/mL] | MIC against acne bacterium strain HL043PA1 strain (RT5) (HL043PA1 strain (RT5); [8]) [µg/mL] | MIC [1] [µg/mL] | MIC (HL110PA4 strain (RT6)) [µg/mL] | Growth of the HL053PA1 strain (RT4 strain), viable cell count time course [2] | Growth of the HL043PA1 strain (RT5 strain), viable cell count time course [3] | Growth of the dominant strain in acne patients in coculture with RT6 strain [4] | Growth of the dominant strain in acne patients in coculture with RT6 strain [5]
CCCCCCCCCCCCCCCCC(=O)O [Heptadecanoic acid (C17:0), Heptadecanoic acid] | 7.81 (≈ 28.9 µM) | > 1000 | 15.6 (≈ 57.7 µM) | 3.9 (≈ 14.4 µM) | 7.8 (≈ 28.8 µM) | >1000 | ≤ 62.5 | > 1000 |  |  |  | 
CCCCCCCCCCCCCC(=O)O [Myristic acid (C14:0), Myristic acid] | 15.6 (≈ 68.3 µM) | 31.3 (≈ 137 µM) | 15.6 (≈ 68.3 µM) | 31.3 (≈ 137 µM) | 250 (≈ 1090 µM) |  |  | 250 (≈ 1090 µM) |  |  |  | 
CCCCCCCCCCCCCCC(=O)O [Pentadecanoic acid (C15:0), Pentadecanoic acid] | 1.95 (≈ 8.04 µM) | 15.6 (≈ 64.4 µM) | 3.9 (≈ 16.1 µM) | 1.95 (≈ 8.04 µM) | 3.9 (≈ 16.1 µM) |  |  | 250 (≈ 1030 µM) | bacteriostatically suppressed | suppressed first bacteriostatically and then bactericidally after 10 hours from the start of culturing | suppressed selectively | suppressed selectively
CCCCCCCCCCCCCCCC(=O)O [Palmitic acid (C16:0), Palmitic acid] | 7.81 (≈ 30.5 µM) | > 1000 | 62.5 (≈ 244 µM) | 3.9 (≈ 15.2 µM) | 15.6 (≈ 60.8 µM) | >1000 |  | > 1000 |  |  |  | 
